Counter-ions that a name gives are not always drawn.
Legend:
human JAK1 = target: T1, human JAK1 (Homo sapiens, UniProt P23458); test: In Vitro JAK Kinase Assay (HTRF, phosphorylation of a biotinylated peptide), JAK1; assay type: biochemical; details: Table 4; catalytic domain a.a. 837-1142, assay of Example A
T1 construct: human JAK1 (a.a. 837-1142); His tag (N); made in house; host or cells: insect cells (baculovirus)
Protocol: (§1) The catalytic activity of JAK1, JAK2 or JAK3 was assayed by measuring the phosphorylation of a biotinylated peptide. The phosphorylated peptide was detected by homogenous time resolved fluorescence (HTRF). […] Reactions were carried out at room temperature for 1 hour and then stopped with 20 μL 45 mM EDTA, 300 nM SA-APC, 6 nM Eu-Py20 in assay buffer (Perkin Elmer, Boston, Mass.). Binding to the Europium labeled antibody took place for 40 minutes and HTRF signal was measured on a Fusion plate reader (Perkin Elmer, Boston, Mass.).

human JAK2 = target: T2, human JAK2 (Homo sapiens, UniProt O60674); test: In Vitro JAK Kinase Assay (HTRF, phosphorylation of a biotinylated peptide), JAK2; assay type: biochemical; details: Table 4; assay of Example A
T2 construct: JAK2 (a.a. 828-1132); His tag (N); made in house; host or cells: insect cells (baculovirus)
T2 sequence (O60674 828-1132): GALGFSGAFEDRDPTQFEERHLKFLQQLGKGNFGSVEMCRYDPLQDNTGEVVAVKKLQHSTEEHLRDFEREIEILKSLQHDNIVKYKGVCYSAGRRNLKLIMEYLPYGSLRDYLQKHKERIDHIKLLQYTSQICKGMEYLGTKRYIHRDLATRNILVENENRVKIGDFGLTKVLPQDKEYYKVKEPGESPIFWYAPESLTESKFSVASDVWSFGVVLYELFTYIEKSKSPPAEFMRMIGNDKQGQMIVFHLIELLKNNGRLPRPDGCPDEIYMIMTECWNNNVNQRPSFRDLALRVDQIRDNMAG
Protocol: as §1

T1 sequence (P23458 849-1154): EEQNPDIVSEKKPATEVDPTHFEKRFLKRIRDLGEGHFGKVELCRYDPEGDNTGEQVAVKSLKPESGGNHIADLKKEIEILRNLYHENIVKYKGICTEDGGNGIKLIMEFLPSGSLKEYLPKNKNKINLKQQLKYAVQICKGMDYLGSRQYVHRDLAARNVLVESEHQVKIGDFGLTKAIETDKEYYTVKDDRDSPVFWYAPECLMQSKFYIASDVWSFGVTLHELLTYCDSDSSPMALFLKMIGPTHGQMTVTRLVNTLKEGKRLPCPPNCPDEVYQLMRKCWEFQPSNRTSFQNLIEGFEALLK

Row | Compound | IC50 (human JAK1) | JAK2/JAK1 IC50 ratio (human JAK2)
1 | CCNCc1cc(O[C@H]2CC[C@@H](N3CC(CC#N)(n4cc(-c5ncnc6[nH]ccc56)cn4)C3)CC2)nc(C(F)(F)F)n1 [Example 5, {1-(cis-4-{[6-[(Ethylamino)methyl]-2-(trifluoromethyl)pyrimidin-4-yl]oxy}cyclohexyl)-3-[4-(7H-pyrrolo[2,3-d]pyrimidin-4-yl)-1H-pyrazol-1-yl]azetidin-3-yl}acetonitrile tris(trifluoroacetate)] | < 10 nM | ≧10
2 | CC(C)NCc1cc(O[C@H]2CC[C@@H](N3CC(CC#N)(n4cc(-c5ncnc6[nH]ccc56)cn4)C3)CC2)nc(C(F)(F)F)n1.O=C(O)C(F)(F)F.O=C(O)C(F)(F)F.O=C(O)C(F)(F)F [Example 6, {1-(cis-4-{[6-[(isopropylamino)methyl]-2-(trifluoromethyl)pyrimidin-4-yl]oxy}cyclohexyl)-3-[4-(7H-pyrrolo[2,3-d]pyrimidin-4-yl)-1H-pyrazol-1-yl]azetidin-3-yl}acetonitrile tris(trifluoroacetate)] | < 10 nM | ≧10
3 | N#CCC1(n2cc(-c3ncnc4[nH]ccc34)cn2)CN([C@H]2CC[C@@H](Oc3cc(CNC4CC4)nc(C(F)(F)F)n3)CC2)C1.O=C(O)C(F)(F)F.O=C(O)C(F)(F)F.O=C(O)C(F)(F)F [Example 7, {1-(cis-4-{[6-[(cyclopropylamino)methyl]-2-(trifluoromethyl)pyrimidin-4-yl]oxy}cyclohexyl)-3-[4-(7H-pyrrolo[2,3-d]pyrimidin-4-yl)-1H-pyrazol-1-yl]azetidin-3-yl}acetonitrile tris(trifluoroacetate)] | < 10 nM | ≧10
4 | CCN(C)Cc1cc(O[C@H]2CC[C@@H](N3CC(CC#N)(n4cc(-c5ncnc6[nH]ccc56)cn4)C3)CC2)nc(C(F)(F)F)n1.O=C(O)C(F)(F)F.O=C(O)C(F)(F)F.O=C(O)C(F)(F)F [Example 8, {1-(cis-4-{[6-{[ethyl(methyl)amino]methyl}-2-(trifluoromethyl)pyrimidin-4-yl]oxy}cyclohexyl)-3-[4-(7H-pyrrolo[2,3-d]pyrimidin-4-yl)-1H-pyrazol-1-yl]azetidin-3-yl}acetonitrile tris(trifluoroacetate)] | < 10 nM | ≧10
5 | N#CCC1(n2cc(-c3ncnc4[nH]ccc34)cn2)CN([C@H]2CC[C@@H](Oc3cc(CNCC4CC4)nc(C(F)(F)F)n3)CC2)C1.O=C(O)C(F)(F)F.O=C(O)C(F)(F)F.O=C(O)C(F)(F)F [Example 9, {1-(cis-4-{[6-{[(cyclopropylmethyl)amino]methyl}-2-(trifluoromethyl)pyrimidin-4-yl]oxy}cyclohexyl)-3-[4-(7H-pyrrolo[2,3-d]pyrimidin-4-yl)-1H-pyrazol-1-yl]azetidin-3-yl}acetonitrile tris(trifluoroacetate)] | < 10 nM | ≧10
6 | N#CCC1(n2cc(-c3ncnc4[nH]ccc34)cn2)CN([C@H]2CC[C@@H](Oc3cc(CNC4CCC4)nc(C(F)(F)F)n3)CC2)C1.O=C(O)C(F)(F)F.O=C(O)C(F)(F)F.O=C(O)C(F)(F)F [Example 10, {1-(cis-4-{[6-[(cyclobutylamino)methyl]-2-(trifluoromethyl)pyrimidin-4-yl]oxy}cyclohexyl)-3-[4-(7H-pyrrolo[2,3-d]pyrimidin-4-yl)-1H-pyrazol-1-yl]azetidin-3-yl}acetonitrile tris(trifluoroacetate)] | < 10 nM | ≧10
7 | N#CCC1(n2cc(-c3ncnc4[nH]ccc34)cn2)CN([C@H]2CC[C@@H](Oc3cc(CNCCO)nc(C(F)(F)F)n3)CC2)C1 [Example 11, {1-(cis-4-{[6-{[(2-hydroxyethyl)amino]methyl}-2-(trifluoromethyl)pyrimidin-4-yl]oxy}cyclohexyl)-3-[4-(7H-pyrrolo[2,3-d]pyrimidin-4-yl)-1H-pyrazol-1-yl]azetidin-3-yl}acetonitrile tris(trifluoroacetate) (salt)] | < 10 nM | ≧10
8 | CN(CCO)Cc1cc(O[C@H]2CC[C@@H](N3CC(CC#N)(n4cc(-c5ncnc6[nH]ccc56)cn4)C3)CC2)nc(C(F)(F)F)n1 [Example 12, {1-(cis-4-{[6-{[(2-hydroxyethyl)(methyl)amino]methyl}-2-(trifluoromethyl)pyrimidin-4-yl]oxy}cyclohexyl)-3-[4-(7H-pyrrolo[2,3-d]pyrimidin-4-yl)-1H-pyrazol-1-yl]azetidin-3-yl}acetonitrile tris(trifluoroacetate) (salt)] | < 10 nM | ≧10
9 | CCN(CCO)Cc1cc(O[C@H]2CC[C@@H](N3CC(CC#N)(n4cc(-c5ncnc6[nH]ccc56)cn4)C3)CC2)nc(C(F)(F)F)n1 [Example 13, {1-(cis-4-{[6-{[ethyl(2-hydroxyethyl)amino]methyl}-2-(trifluoromethyl)pyrimidin-4-yl]oxy}cyclohexyl)-3-[4-(7H-pyrrolo[2,3-d]pyrimidin-4-yl)-1H-pyrazol-1-yl]azetidin-3-yl}acetonitrile tris(trifluoroacetate) (salt)] | < 10 nM | ≧10
10 | N#CCC1(n2cc(-c3ncnc4[nH]ccc34)cn2)CN([C@H]2CC[C@@H](Oc3cc(CNCC(F)(F)F)nc(C(F)(F)F)n3)CC2)C1.O=C(O)C(F)(F)F.O=C(O)C(F)(F)F.O=C(O)C(F)(F)F [Example 14, [3-[4-(7H-pyrrolo[2,3-d]pyrimidin-4-yl)-1H-pyrazol-1-yl]-1-(cis-4-{[6-{[(2,2,2-trifluoroethyl)amino]methyl}-2-(trifluoromethyl)pyrimidin-4-yl]oxy}cyclohexyl)azetidin-3-yl]acetonitrile tris(trifluoroacetate)] | < 10 nM | ≧10
11 | N#CCC1(n2cc(-c3ncnc4[nH]ccc34)cn2)CN([C@H]2CC[C@@H](Oc3cc(CNCCF)nc(C(F)(F)F)n3)CC2)C1.O=C(O)C(F)(F)F.O=C(O)C(F)(F)F.O=C(O)C(F)(F)F [Example 15, {1-(cis-4-{[6-{[(2-fluoroethyl)amino]methyl}-2-(trifluoromethyl)pyrimidin-4-yl]oxy}cyclohexyl)-3-[4-(7H-pyrrolo[2,3-d]pyrimidin-4-yl)-1H-pyrazol-1-yl]azetidin-3-yl}acetonitrile tris(trifluoroacetate)] | < 10 nM | ≧10
12 | C[C@@H](CO)NCc1cc(O[C@H]2CC[C@@H](N3CC(CC#N)(n4cc(-c5ncnc6[nH]ccc56)cn4)C3)CC2)nc(C(F)(F)F)n1 [Example 16, {1-(cis-4-{[6-({[(1S)-2-hydroxy-1-methylethyl]amino}methyl)-2-(trifluoromethyl)pyrimidin-4-yl]oxy}cyclohexyl)-3-[4-(7H-pyrrolo[2,3-d]pyrimidin-4-yl)-1H-pyrazol-1-yl]azetidin-3-yl}acetonitrile Ex 1 tris(trifluoroacetate) (salt)] | < 10 nM | ≧10
13 | C[C@H](CO)NCc1cc(O[C@H]2CC[C@@H](N3CC(CC#N)(n4cc(-c5ncnc6[nH]ccc56)cn4)C3)CC2)nc(C(F)(F)F)n1 [Example 17, {1-(cis-4-{[6-({[(1R)-2-hydroxy-1-methylethyl]amino}methyl)-2-(trifluoromethyl)pyrimidin-4-yl]oxy}cyclohexyl)-3-[4-(7H-pyrrolo[2,3-d]pyrimidin-4-yl)-1H-pyrazol-1-yl]azetidin-3-yl}acetonitrile tris(trifluoroacetate) (salt)] | < 10 nM | ≧10
14 | C[C@@H](O)CNCc1cc(O[C@H]2CC[C@@H](N3CC(CC#N)(n4cc(-c5ncnc6[nH]ccc56)cn4)C3)CC2)nc(C(F)(F)F)n1 [Example 18, {1-(cis-4-{[6-({[(2S)-2-hydroxypropyl]amino}methyl)-2-(trifluoromethyl)pyrimidin-4-yl]oxy}cyclohexyl)-3-[4-(7H-pyrrolo[2,3-d]pyrimidin-4-yl)-1H-pyrazol-1-yl]azetidin-3-yl}acetonitrile tris(trifluoroacetate) (salt)] | < 10 nM | ≧10
15 | C[C@H](O)CNCc1cc(O[C@H]2CC[C@@H](N3CC(CC#N)(n4cc(-c5ncnc6[nH]ccc56)cn4)C3)CC2)nc(C(F)(F)F)n1 [Example 19, {1-(cis-4-{[6-({[(2R)-2-hydroxypropyl]amino}methyl)-2-(trifluoromethyl)pyrimidin-4-yl]oxy}cyclohexyl)-3-[4-(7H-pyrrolo[2,3-d]pyrimidin-4-yl)-1H-pyrazol-1-yl]azetidin-3-yl}acetonitrile tris(trifluoroacetate) (salt)] | < 10 nM | ≧10
16 | CC(C)(O)CNCc1cc(O[C@H]2CC[C@@H](N3CC(CC#N)(n4cc(-c5ncnc6[nH]ccc56)cn4)C3)CC2)nc(C(F)(F)F)n1 [Example 20, {1-(cis-4-{[6-{[(2-hydroxy-2-methylpropyl)amino]methyl}-2-(trifluoromethyl)pyrimidin-4-yl]oxy}cyclohexyl)-3-[4-(7H-pyrrolo[2,3-d]pyrimidin-4-yl)-1H-pyrazol-1-yl]azetidin-3-yl}acetonitrile tris(trifluoroacetate) (salt)] | < 10 nM | ≧10
17 | N#CCC1(n2cc(-c3ncnc4[nH]ccc34)cn2)CN([C@H]2CC[C@@H](Oc3cc(CNCCCO)nc(C(F)(F)F)n3)CC2)C1 [Example 21, {1-(cis-4-{[6-{[(3-hydroxypropyl)amino]methyl}-2-(trifluoromethyl)pyrimidin-4-yl]oxy}cyclohexyl)-3-[4-(7H-pyrrolo[2,3-d]pyrimidin-4-yl)-1H-pyrazol-1-yl]azetidin-3-yl}acetonitrile tris(trifluoroacetate) (salt)] | < 10 nM | ≧10
